Results from paper PMC7660650, “Chemical Starting Matter for HNF4α Ligand Discovery and Chemogenomics” (International Journal of Molecular Sciences, 2020).

target: T1, Gal4-HNF4α (human HNF4α LBD) (Homo sapiens, UniProt P41235); assay: Hybrid Gal4-HNF4α reporter gene assay in transiently transfected HEK293T cells; assay type: cell-based; settings: not given
T1 construct: uniprot entry: P41235-1, residues 142-377; expressed in transfected cells; host or cells: HEK293T
T1 sequence (P41235 142-377): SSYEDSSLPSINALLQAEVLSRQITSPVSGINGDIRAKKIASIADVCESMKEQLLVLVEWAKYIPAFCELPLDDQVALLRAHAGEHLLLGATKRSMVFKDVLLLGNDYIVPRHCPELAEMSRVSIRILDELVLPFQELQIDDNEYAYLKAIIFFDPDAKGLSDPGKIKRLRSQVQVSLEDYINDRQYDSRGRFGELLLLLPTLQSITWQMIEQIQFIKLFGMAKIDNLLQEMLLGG

SMILES | HNF4a-screening_activity_(mean_of_n=2)
c1ccc2c3c([nH]c2c1)CCCC3 [Prestw-Frag-2780, C1CCc2c(C1)[nH]c1ccccc21] | 0.7267
CCOc1ccccc1OCC1CNCCO1 (stereo not drawn) [Prestw-Frag-2992, CCOc1ccccc1OCC1CNCCO1] | 0.7878

same assay, conditions: Table S1, primary screening, 50 µM

SMILES | HNF4a-screening_activity_(mean_of_n=2)
CN1C(=O)CCC1=O [Prestw-Frag-2713, CN1C(=O)CCC1=O] | 0.9037
N=C(N)NC(=N)Nc1ccc(Cl)cc1 [Prestw-Frag-2722, NC(=N)NC(=N)Nc1ccc(Cl)cc1] | 0.8665
CCCOc1ccc(C(=O)OCC)cc1N [Prestw-Frag-2724, CCCOc1ccc(cc1N)C(=O)OCC] | 1.372
CS(=O)(=O)Nc1ccccc1 [Prestw-Frag-2755, CS(=O)(=O)Nc1ccccc1] | 0.9874
O=c1ccn([C@@H]2C[C@H](O)[C@@H](CO)O2)c(=O)[nH]1 [Prestw-Frag-2769, OC[C@H]1O[C@@H](C[C@@H]1O)n1ccc(=O)[nH]c1=O] | 0.8958
CCN(CC)CCOC(=O)C1(c2ccccc2)CCCC1 [Prestw-Frag-2774, CCN(CC)CCOC(=O)C1(CCCC1)c1ccccc1] | 1.226
c1cc2c(cc1OC[C@H]1CCCNC1)OCO2 [Prestw-Frag-2789, C(Oc1ccc2OCOc2c1)[C@H]1CCCNC1] | 1.15
CCNC(=O)c1cccnc1 [Prestw-Frag-2794, CCNC(=O)c1cccnc1] | 1.068
COC(=O)c1c[nH]c2ccccc12 [Prestw-Frag-2799, COC(=O)c1c[nH]c2ccccc12] | 0.9379
OC1CCN(c2ccccc2F)CC1 [Prestw-Frag-2803, OC1CCN(CC1)c1ccccc1F] | 1.103
Cc1ccccc1Nc1ncccc1C(=O)O [Prestw-Frag-2806, Cc1ccccc1Nc1ncccc1C(O)=O] | 1.238
O=C(O)c1cccnc1Nc1cccc(Cl)c1 [Prestw-Frag-2807, OC(=O)c1cccnc1Nc1cccc(Cl)c1] | 1.808
NCCCOc1cccc(CN2CCCCC2)c1 [Prestw-Frag-2808, NCCCOc1cccc(CN2CCCCC2)c1] | 1.297
Oc1cccc(CN2CCCCC2)c1 [Prestw-Frag-2809, Oc1cccc(CN2CCCCC2)c1] | 1.12
CCNC(=O)c1ccc(Cl)cc1 [Prestw-Frag-2818, CCNC(=O)c1ccc(Cl)cc1] | 0.8348
Nc1cccc(O)c1 [Prestw-Frag-2826, Nc1cccc(O)c1] | 1.072
C[C@@H](O)c1cc(C(F)(F)F)cc(C(F)(F)F)c1 [Prestw-Frag-2849, C[C@@H](O)c1cc(cc(c1)C(F)(F)F)C(F)(F)F] | 1.171
Clc1cccc(N2CCNCC2)c1Cl [Prestw-Frag-2853, Clc1cccc(N2CCNCC2)c1Cl] | 1.239
O=C1CCc2ccc(O)cc2N1 [Prestw-Frag-2854, Oc1ccc2CCC(=O)Nc2c1] | 1.013
c1ccc(C(c2ccccc2)n2ccnc2)cc1 [Prestw-Frag-2868, c1cn(cn1)C(c1ccccc1)c1ccccc1] | 0.7887
c1ccc(-c2nnn[nH]2)cc1 [Prestw-Frag-2887, c1ccc(cc1)-c1nnn[nH]1] | 0.9719

SMILES | HNF4a-screening_activity_(mean_of_n=2)
Oc1cc(Cl)c(Cl)cc1Cl [Prestw-Frag-2898, Oc1cc(Cl)c(Cl)cc1Cl] | 5.433
O=C(c1ccccc1)c1ccc(Br)cc1 [Prestw-Frag-2912, Brc1ccc(cc1)C(=O)c1ccccc1] | 0.975
NCCCCN1CCN(c2ncccn2)CC1 [Prestw-Frag-2921, NCCCCN1CCN(CC1)c1ncccn1] | 1.125
Nc1cccc(Nc2ncccn2)c1 [Prestw-Frag-2935, Nc1cccc(Nc2ncccn2)c1] | 1.004
CC(C)(C)OC(=O)/C=C/c1ccccc1 [Prestw-Frag-2947, CC(C)(C)OC(=O)\C=C\c1ccccc1] | 1.247
c1ccc(C2CNCCO2)cc1 (stereo not drawn) [Prestw-Frag-2958, C1COC(CN1)c1ccccc1] | 1.039
COc1ccc(CC(=O)O)cc1 [Prestw-Frag-2960, COc1ccc(CC(O)=O)cc1] | 0.9108
CCc1ccc(CCO)nc1 [Prestw-Frag-2968, CCc1ccc(CCO)nc1] | 1.216
Nc1nc2c(s1)CCCC2 [Prestw-Frag-2972, Nc1nc2CCCCc2s1] | 1.123
CCOc1ccccc1O [Prestw-Frag-2995, CCOc1ccccc1O] | 0.8201
c1ccc(-n2ccc3ccccc32)cc1 [Prestw-Frag-3011, c1cc2ccccc2n1-c1ccccc1] | 0.7452
CN1CCN(S(=O)(=O)c2ccccc2)CC1 [Prestw-Frag-3012, CN1CCN(CC1)S(=O)(=O)c1ccccc1] | 0.8018
CNS(=O)(=O)Cc1ccc2[nH]cc(CCN)c2c1 [Prestw-Frag-3017, CNS(=O)(=O)Cc1ccc2[nH]cc(CCN)c2c1] | 0.7522
c1ccc2nccnc2c1 [Prestw-Frag-3033, c1ccc2nccnc2c1] | 0.9657
O=C1c2nccnc2C(O)N1c1ccc(Cl)cn1 (stereo not drawn) [Prestw-Frag-3046, OC1N(C(=O)c2nccnc12)c1ccc(Cl)cn1] | 0.8017
Cc1ccc(N)c(C#N)c1 [Prestw-Frag-3060, Cc1ccc(N)c(c1)C#N] | 0.8715
OCCc1ccc(Cl)cc1 [Prestw-Frag-3062, OCCc1ccc(Cl)cc1] | 0.9659
O=C1c2ccc(Cl)cc2CCc2cccnc21 [Prestw-Frag-3073, Clc1ccc2c(CCc3cccnc3C2=O)c1] | 0.9858
CCN(CC)C(=O)/C=C/c1ccccc1 [Prestw-Frag-3088, CCN(CC)C(=O)\C=C\c1ccccc1] | 0.9663
O=C(O)/C=C/c1cnc[nH]1 [Prestw-Frag-3090, OC(=O)\C=C\c1cnc[nH]1] | 1.054
OCc1ccc(F)cc1F [Prestw-Frag-3100, OCc1ccc(F)cc1F] | 0.9757

SMILES | HNF4a-screening_activity_(mean_of_n=2)
OCCn1cncn1 [Prestw-Frag-3101, OCCn1cncn1] | 0.9898
CCCCc1nc(Cl)c(CO)[nH]1 [Prestw-Frag-3114, CCCCc1nc(Cl)c(CO)[nH]1] | 0.9053
CCN(CC)CCNC(=O)c1ccc(N)c(Cl)c1 [Prestw-Frag-3120, CCN(CC)CCNC(=O)c1ccc(N)c(Cl)c1] | 1.18
c1ccc2c(c1)CCCN2 [Prestw-Frag-3137, C1CNc2ccccc2C1] | 0.9914
Fc1cccnc1N1CCCC1 [Prestw-Frag-3150, Fc1cccnc1N1CCCC1] | 1.041
COc1ccc2c(c1)CCCC2 [Prestw-Frag-3188, COc1ccc2CCCCc2c1] | 0.8877
Nc1nc(N)nc(-c2ccccc2)n1 [Prestw-Frag-3190, Nc1nc(N)nc(n1)-c1ccccc1] | 0.8184
O=C(Cc1ccccc1F)C1CC1 [Prestw-Frag-3198, Fc1ccccc1CC(=O)C1CC1] | 1.083
Cc1ccccc1C(=O)Nc1ccccc1 [Prestw-Frag-3202, Cc1ccccc1C(=O)Nc1ccccc1] | 1.357
Oc1ccccc1OCC(F)(F)F [Prestw-Frag-3225, Oc1ccccc1OCC(F)(F)F] | 1.152
Cc1cn(-c2cc(N)cc(C(F)(F)F)c2)cn1 [Prestw-Frag-3241, Cc1cn(cn1)-c1cc(N)cc(c1)C(F)(F)F] | 1.061
Cc1cc(C)nc(O)n1 [Prestw-Frag-3247, Cc1cc(C)nc(O)n1] | 1.288
O=C(O)CC(c1ccccc1)c1ccccc1 [Prestw-Frag-3250, OC(=O)CC(c1ccccc1)c1ccccc1] | 1.055
FC(F)(F)c1nnc2n1CCNC2 [Prestw-Frag-3253, FC(F)(F)c1nnc2CNCCn12] | 1.371
c1ccc(N2CCN(c3ccccc3)CC2)cc1 [Prestw-Frag-3257, C1CN(CCN1c1ccccc1)c1ccccc1] | 1.063
CN1CCN(c2cc(N)ncn2)CC1 [Prestw-Frag-3262, CN1CCN(CC1)c1cc(N)ncn1] | 1.186
Nc1ccn([C@H]2C[C@H](O)[C@@H](CO)O2)c(=O)n1 [Prestw-Frag-3264, Nc1ccn([C@H]2C[C@H](O)[C@@H](CO)O2)c(=O)n1] | 1.086
COc1ccc(S(=O)(=O)N2CCNCC2)cc1 [Prestw-Frag-3313, COc1ccc(cc1)S(=O)(=O)N1CCNCC1] | 1.073
CCOc1ccccc1C(=N)N [Prestw-Frag-3314, CCOc1ccccc1C(N)=N] | 1.051
